Among the test systems are NCI-H460 lung; MDA-MB-231 breast; CCRF-CEM leukemia; HT29 colon; SK-MEL-5 melanoma; OVCAR-5 ovarian; KM12 colon; SK-MEL-2 melanoma; NCI-H23 lung; EKVX NSCLC.
Holding throughout (assay): growth of human tumour cells (NCI), 48 h

“And” between values parts separate entries of the source, which are not always exact repeats. Equal values may be shown once.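 Step 1: Grow cells in 96-well plates. Step 2: Expose to compound for 48 hours at 5 concentrations. Step 3: Interpolate endpoints linearly; if unreached, use highest concentration. GI50 = concentration required for 50% inhibition of growth. The concentration for full growth arrest is given as TGI.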

For the compound `O=C(Nc1ccccc1)Nc1ccccc1CNc1nc(Nc2ccc(OCCN3CCCC3)cc2)ncc1Cl`, the GI50 is 1.07 µM in the test with NCI-H460 lung; 1.49 µM with MDA-MB-231 breast; 2.02 µM with CCRF-CEM leukemia; 1.66 µM with HT29 colon; 5.27 µM in the test on SK-MEL-5 melanoma; 6.6 µM in the test with OVCAR-5 ovarian. Further, the GI50 is 2.15 µM in the test on KM12 colon, 4.74 µM in the test with SK-MEL-2 melanoma, 7.29 µM in the test on NCI-H23 lung and 7.02 µM with EKVX NSCLC. Moreover, the TGI amounted to 2.22 µM in the test with NCI-H460 lung; 5.65 µM in the test with MDA-MB-231 breast; 17.8 µM in the test on CCRF-CEM leukemia; 8.39 µM in the test on HT29 colon; 11.9 µM with SK-MEL-5 melanoma; 13.3 µM in the test with OVCAR-5 ovarian. For the same compound, the TGI is 7.97 µM with KM12 colon, 13.5 µM in the test with SK-MEL-2 melanoma, 19.5 µM in the test on NCI-H23 lung and 15.4 µM with EKVX NSCLC.

As for `COc1cc(OC)c(/C=C/S(=O)(=O)Cc2ccc(OC)c(NCC(=O)O)c2)c(OC)c1`, the GI50 is 0.114 µM and 0.0451 µM in the test with NCI-H460 lung; 0.192 µM and 0.196 µM in the test on MDA-MB-231 breast; 0.159 µM and 0.291 µM in the test on CCRF-CEM leukemia; 0.334 µM and 0.328 µM with HT29 colon; 0.113 µM and 0.0684 µM in the test on SK-MEL-5 melanoma; 0.347 µM and 0.47 µM in the test with OVCAR-5 ovarian. Moreover, the GI50 in the test with KM12 colon is 0.103 µM and 0.0499 µM; in the test on SK-MEL-2 melanoma, 0.396 µM and 0.288 µM; in the test with NCI-H23 lung, 0.263 µM and 0.136 µM; with EKVX NSCLC it was 0.127 µM and 0.0834 µM. Also, the TGI in the test on NCI-H460 lung is more than 100 µM; in the test on MDA-MB-231 breast it was more than 2.68 µM; with CCRF-CEM leukemia, more than 100 µM; in the test with HT29 colon, > 8.57 µM and 1.4 µM; in the test with SK-MEL-5 melanoma it was 1.29 µM and 1.01 µM; in the test on OVCAR-5 ovarian, more than 100 µM. Also, the TGI is more than 10 µM with KM12 colon, more than 100 µM with SK-MEL-2 melanoma, more than 100 µM in the test on NCI-H23 lung and more than 100 µM in the test on EKVX NSCLC.

Regarding `C[C@H](NC(=O)CCC(F)(F)F)C(=O)N[C@@H]1C(=O)N(CCO)c2ncccc2-c2ccccc21`, the GI50 with NCI-H460 lung, in the test on MDA-MB-231 breast, in the test on CCRF-CEM leukemia, in the test on HT29 colon, with SK-MEL-5 melanoma and in the test with OVCAR-5 ovarian was more than 100 µM throughout. The GI50 with KM12 colon, in the test with SK-MEL-2 melanoma, in the test with NCI-H23 lung and in the test with EKVX NSCLC was more than 100 µM throughout. The TGI in the test on NCI-H460 lung, with MDA-MB-231 breast, with CCRF-CEM leukemia, with HT29 colon, in the test with SK-MEL-5 melanoma and in the test on OVCAR-5 ovarian was more than 100 µM in each case. Moreover, the TGI with KM12 colon, in the test with SK-MEL-2 melanoma, in the test on NCI-H23 lung and in the test with EKVX NSCLC was more than 100 µM in each case.

Turning to `CCCCCCN1C(=O)CN=C1Nc1ccc2cc3ccc(NC4=NCC(=O)N4CCCCCC)cc3nc2c1`, the GI50 with NCI-H460 lung is 1.93 µM; in the test on MDA-MB-231 breast, 1.94 µM; with CCRF-CEM leukemia, 2.49 µM; in the test on HT29 colon it was 1.81 µM; with SK-MEL-5 melanoma, 3.9 µM; in the test with OVCAR-5 ovarian, 1.81 µM. Besides, the GI50 in the test on KM12 colon was 1.47 µM; in the test with SK-MEL-2 melanoma, 2.79 µM; in the test on NCI-H23 lung it was 1.96 µM; with EKVX NSCLC it was 1.89 µM. For the same compound, the TGI with NCI-H460 lung came to 3.83 µM; in the test with MDA-MB-231 breast, 3.87 µM; in the test on CCRF-CEM leukemia, 6.79 µM; in the test on HT29 colon, 4.2 µM; in the test on SK-MEL-5 melanoma, 15.8 µM; in the test with OVCAR-5 ovarian, 4.12 µM. For the same compound, the TGI in the test on KM12 colon turned out to be 4.1 µM; in the test with SK-MEL-2 melanoma it was 8.45 µM; in the test with NCI-H23 lung, 5.23 µM; with EKVX NSCLC, 5.22 µM.

On to `Nc1ccc2c(c1)CN1C(=O)c3ccccc3C1=N2`, for which the TGI was more than 125 µM with NCI-H460 lung; 123 µM with MDA-MB-231 breast; more than 90 µM in the test with CCRF-CEM leukemia; more than 125 µM with HT29 colon; 90.9 µM with SK-MEL-5 melanoma; more than 112 µM in the test with OVCAR-5 ovarian. Further, the TGI in the test on KM12 colon, in the test with SK-MEL-2 melanoma, with NCI-H23 lung and in the test with EKVX NSCLC was more than 125 µM throughout. Moreover, the GI50 was 37.6 µM in the test on CCRF-CEM leukemia, 19.2 µM with HT29 colon, 37.9 µM in the test with KM12 colon and 72.2 µM in the test with EKVX NSCLC.

Take `CCN(CC)CCOc1ccc(C2=C(c3ccccc3)CCc3cc(OC)ccc32)cc1`: the GI50 with NCI-H460 lung is 1.84 µM; in the test on MDA-MB-231 breast, 2.26 µM; with CCRF-CEM leukemia it was 5.59 µM; in the test with HT29 colon it was 0.445 µM; in the test with SK-MEL-5 melanoma, 0.811 µM; in the test on OVCAR-5 ovarian, 2.31 µM. The GI50 is 2.46 µM with KM12 colon, 2.15 µM in the test on SK-MEL-2 melanoma, 2.9 µM in the test on NCI-H23 lung and 3.44 µM in the test on EKVX NSCLC. The TGI in the test on NCI-H460 lung was 3.52 µM; in the test with MDA-MB-231 breast, 7.44 µM; in the test on CCRF-CEM leukemia, more than 49.3 µM; in the test on HT29 colon, 1.87 µM; in the test with SK-MEL-5 melanoma, 2.29 µM; in the test on OVCAR-5 ovarian, 5.52 µM. Moreover, the TGI in the test on KM12 colon was found to be 6.85 µM; in the test on SK-MEL-2 melanoma, 4.67 µM; with NCI-H23 lung it was 11.3 µM; with EKVX NSCLC it was 14 µM.

These data come from PubChem BioAssay (NCI).
